This note sets out measurements from ChEMBL document CHEMBL1201862, “PubChem BioAssay data set” (2004).

Test systems include EKVX; SK-MEL-5; RXF 393; OVCAR-3; SN12C; NCI-H460; HOP-92; NCI/ADR-RES; OVCAR-8; MDA-MB-435; 786-0; CCRF-CEM; MCF7; UO-31; DU-145; SF-295; SF-268; T47D; SK-MEL-28; KM12.
Common to all, as to assay: DTP human tumour cell line panel, 48 h

Molecules are shown by their SMILES.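 48-hour exposure; five concentrations; linearly interpolated endpoints. GI50 marks 50% less growth.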 The source made the active and inactive calls. Cut-off read from the data, not from the text of the source: active = GI50 up to about 1.1 µM and inactive = higher.

Usually GI50 stands for the concentration at which growth is held to half of that of the control.

Turning to `Cc1ccc2c(c1)CC1(C2)Cc2ccc(C)cc2C1=O` (stereo not given), the GI50 was 32.2 µM (inactive) in the assay on EKVX; 13 µM (inactive) with SK-MEL-5; 17.9 µM (inactive) in the assay with RXF 393; 23.9 µM (inactive) with OVCAR-3; 24.8 µM (inactive) in the assay on SN12C; 23.3 µM (inactive) in the assay with NCI-H460. Also, the GI50 in the assay with HOP-92 is 19.5 µM (inactive); in the assay on NCI/ADR-RES, 15.9 µM (inactive); with OVCAR-8 it was 36.5 µM (inactive); in the assay on MDA-MB-435, 11.4 µM (inactive); with 786-0 it was 16.8 µM (inactive); with CCRF-CEM, 22.1 µM (inactive). For the same compound, the GI50 in the assay with MCF7 was 24.7 µM (inactive); in the assay with UO-31, 27.5 µM (inactive); in the assay on DU-145, 31.9 µM (inactive); in the assay on SF-295 it was 45.9 µM (inactive); in the assay on SF-268, 32 µM (inactive); in the assay with T47D it was 59.6 µM (inactive). Further, the GI50 in the assay with SK-MEL-28 was 42 µM (inactive); in the assay with KM12, 23.5 µM (inactive).
For `[O-][S+]1SC(=S)C2C=CC=NC21` (stereo not given), the GI50 with EKVX is 13.2 µM (inactive); in the assay on SK-MEL-5 it was 18.8 µM (inactive); in the assay on RXF 393, 18.3 µM (inactive); in the assay on OVCAR-3, 20.6 µM (inactive); with SN12C it was 14.8 µM (inactive); with NCI-H460, 17.4 µM (inactive). Moreover, the GI50 in the assay on HOP-92 is 15.8 µM (inactive); with NCI/ADR-RES, 20.9 µM (inactive); in the assay with OVCAR-8, 25 µM (inactive); in the assay with MDA-MB-435 it was > 100 µM (inactive); with 786-0 it was 14.5 µM (inactive); in the assay with CCRF-CEM, > 100 µM (inactive). Besides, the GI50 in the assay with MCF7 is 17.5 µM (inactive); with UO-31, 14.7 µM (inactive); in the assay with DU-145 it was 16.6 µM (inactive); with SF-295, 22.4 µM (inactive); in the assay on SF-268, 19.5 µM (inactive); in the assay with T47D, 18.9 µM (inactive). Moreover, the GI50 with SK-MEL-28 is > 100 µM (inactive); in the assay on KM12 it was 87.7 µM (inactive).
Consider `CC[C@@H]1CN(C)[C@H]2Cc3c([nH]c4ccccc34)C(=O)C[C@H]1C2C(=O)OC` (stereo not given in full), for which the GI50 with EKVX was > 100 µM (inactive); with SK-MEL-5 it was > 100 µM (inactive); in the assay on RXF 393, > 77.8 µM (inactive); in the assay on OVCAR-3, > 100 µM (inactive); in the assay on SN12C, > 100 µM (inactive); in the assay with NCI-H460, > 100 µM (inactive). For the same compound, the GI50 is > 100 µM (inactive) in the assay on HOP-92; > 95.7 µM (inactive) with NCI/ADR-RES; > 100 µM (inactive) in the assay on OVCAR-8; > 100 µM (inactive) with MDA-MB-435; > 100 µM (inactive) with 786-0; 96.6 µM (inactive) with CCRF-CEM. In addition, the GI50 in the assay with MCF7 was > 100 µM (inactive); in the assay on UO-31 it was > 100 µM (inactive); in the assay with DU-145, > 100 µM (inactive); in the assay with SF-295, > 54.2 µM (inactive); with SF-268, > 100 µM (inactive); with T47D it was > 100 µM (inactive). For the same compound, the GI50 in the assay on SK-MEL-28 and with KM12 was > 100 µM (inactive) throughout.
`Cn1c(=O)c2c(nc(C(=N)SCC(=O)O)n2C)n(C)c1=O`: the GI50 was 29.1 µM (inactive) with EKVX; 16 µM (inactive) in the assay with SK-MEL-5; 53.1 µM (inactive) with RXF 393; 43.5 µM (inactive) in the assay on OVCAR-3; 45.9 µM (inactive) in the assay on SN12C; 29.6 µM (inactive) in the assay on NCI-H460. Also, the GI50 with HOP-92 is 36.6 µM (inactive); with NCI/ADR-RES, 33.3 µM (inactive); with OVCAR-8, 42.7 µM (inactive); in the assay on MDA-MB-435, 29.2 µM (inactive); in the assay with 786-0, 45.7 µM (inactive); with CCRF-CEM it was 5.57 µM (inactive). The GI50 was 38.5 µM (inactive) in the assay with MCF7; 41.8 µM (inactive) with UO-31; 61.2 µM (inactive) in the assay with DU-145; 52.7 µM (inactive) in the assay on SF-295; 39.3 µM (inactive) in the assay on SF-268; 33.2 µM (inactive) in the assay with T47D. In addition, the results for the GI50 in the assay on SK-MEL-28 and with KM12 were 37.7 µM (inactive) and 34.5 µM (inactive), respectively.
As for `O=C1c2cccnc2-c2nccc3ccnc1c23`, the GI50 is 1.58 µM (inactive) with EKVX; 0.61 µM (active) in the assay on SK-MEL-5; 1.13 µM (inactive) with RXF 393; 0.343 µM (active) with OVCAR-3; 1.04 µM (active) in the assay with SN12C; 0.0583 µM (active) in the assay with NCI-H460. In addition, the GI50 is 0.687 µM (active) with HOP-92; 0.294 µM (active) in the assay on NCI/ADR-RES; 0.755 µM (active) in the assay with OVCAR-8; 0.219 µM (active) in the assay on MDA-MB-435; 0.461 µM (active) with 786-0; 0.0309 µM (active) in the assay with CCRF-CEM. The GI50 in the assay with MCF7 is 0.24 µM (active); in the assay on UO-31 it was 0.726 µM (active); in the assay with DU-145, 0.966 µM (active); with SF-295, 1.29 µM (inactive); in the assay on SF-268 it was 1.11 µM (active); in the assay on T47D, 0.622 µM (active). Moreover, the GI50 in the assay with SK-MEL-28 was 1.2 µM (inactive); in the assay with KM12, 1.54 µM (inactive).
As for `CCCC(=O)O[C@H]1C=C2C[C@@]34SS[C@]5(CC6=C[C@H](OC(C)=O)[C@@H]7O[C@@H]7[C@H]6N5C3=O)C(=O)N4[C@@H]2[C@H]2O[C@H]21`, the concentration for 50% growth inhibition (GI50) with EKVX is 0.0178 µM (active); in the assay on SK-MEL-5, 0.12 µM (active); in the assay on RXF 393, 0.0205 µM (active); with OVCAR-3, 0.00738 µM (active); in the assay with SN12C it was 0.00567 µM (active); with NCI-H460, 0.0218 µM (active). Besides, the GI50 is 0.02 µM (active) in the assay on HOP-92; 0.0128 µM (active) with NCI/ADR-RES; 0.00644 µM (active) with OVCAR-8; 0.0127 µM (active) in the assay with MDA-MB-435; < 0.005 µM (active) in the assay with 786-0; 0.0116 µM (active) with CCRF-CEM. Besides, the GI50 in the assay on MCF7 is 0.0132 µM (active); with UO-31, 0.059 µM (active); in the assay on DU-145, 0.0356 µM (active); in the assay on SF-295, 0.329 µM (active); with SF-268, 0.00775 µM (active); in the assay on T47D, 0.0256 µM (active). The figures for the GI50 in the assay with SK-MEL-28 and in the assay with KM12 were 0.0251 µM (active) and 0.184 µM (active), respectively.
Regarding `CO/C=C(/C(=O)OC)c1ccccc1[C@@H]1CC1c1cccc(F)c1` (stereo not given in full), the GI50 is 30.5 µM (inactive) in the assay with EKVX; 12.3 µM (inactive) in the assay with SK-MEL-5; 58.3 µM (inactive) in the assay with RXF 393; 27.6 µM (inactive) in the assay on OVCAR-3; 29.6 µM (inactive) with SN12C; 26.6 µM (inactive) in the assay with NCI-H460. Also, the GI50 in the assay with HOP-92 is 23.3 µM (inactive); in the assay with NCI/ADR-RES, 30.5 µM (inactive); with OVCAR-8, 33.5 µM (inactive); in the assay with MDA-MB-435, 19.3 µM (inactive); in the assay with 786-0, 41 µM (inactive); with CCRF-CEM, 26.5 µM (inactive). The GI50 is 43.6 µM (inactive) with MCF7; 31.8 µM (inactive) in the assay with UO-31; 33 µM (inactive) with DU-145; 67 µM (inactive) in the assay on SF-295; 37.5 µM (inactive) in the assay with SF-268; 20.4 µM (inactive) in the assay on T47D. Moreover, the GI50 in the assay with SK-MEL-28 was 39.4 µM (inactive); in the assay on KM12, 24.7 µM (inactive).
